From US20050222200A1, “AMIDE DERIVATIVES AS ION CHANNEL LIGANDS AND PHARMACEUTICAL COMPOSITIONS AND METHODS OF USING THE SAME” (Renovis, Inc., priority 2003, published 2005)

Target: VR1 (Rattus norvegicus, UniProt O35433)
Assay: Calcium imaging assay: inhibition of capsaicin induced calcium influx in DRG neurons (Fura2, microscope)
Assay type: cell-based
Set-up: endogenous in cells; host or cells: DRG neurons
Conditions: capsaicin stimulation; class symbols per legend
Description: VR1 protein is a heat-gated cation channel that […] resulting in neuronal membrane depolarization and elevated intracellular calcium levels. Therefore the functional activity of compounds at the VR1 receptor may be determined by measuring changes in intracellular calcium levels in neurons such as the dorsal root ganglion.
DRG neurons were grown on PDL coated 96-well black-walled plates, in the presence of DMEM medium containing 5% Penstrep, 5% Glutamax, 200 μg/ml hygromycin, 5 μg/ml blasticide and 10% heat inactivated FBS. Prior to assay, cells were loaded with 5 μg/ml Fura2 in normal saline solution at 37° C for 40 minutes. Cells were then washed with normal saline to remove dye before commencement of the experiment.
The plated neurons were transferred into a chamber on the stage of a Nikon eclipse TE300 microscope after which neurons were allowed to attain a stable fluorescence for about 10 minutes before beginning the experiment. The assay consists of two stages, a pretreatment phase followed by a treatment phase. First, a solution of the test compound was added from a multivalve perfusion system to the cells for 1 minute (pretreatment). Immediately following, capsaicin (250 nM) was added in the presence of the test compound (treatment) for a specific period between 20 and 60 seconds.
Fura2 was excited at […] to indicate relative calcium ion concentration. Changes in wavelength measurements were made throughout the course of the experiment. The fluorescence ratio was calculated by dividing fluorescence measured at 340 nm by that at 380 nM. Data was collected using Intelligent Imaging’s Slidebook software. All compounds that inhibited capsaicin induced calcium influx greater than 75% were considered positives.
Fluorescence reflecting calcium ion influx is reduced.

Sequence of VR1 (O35433 whole entry): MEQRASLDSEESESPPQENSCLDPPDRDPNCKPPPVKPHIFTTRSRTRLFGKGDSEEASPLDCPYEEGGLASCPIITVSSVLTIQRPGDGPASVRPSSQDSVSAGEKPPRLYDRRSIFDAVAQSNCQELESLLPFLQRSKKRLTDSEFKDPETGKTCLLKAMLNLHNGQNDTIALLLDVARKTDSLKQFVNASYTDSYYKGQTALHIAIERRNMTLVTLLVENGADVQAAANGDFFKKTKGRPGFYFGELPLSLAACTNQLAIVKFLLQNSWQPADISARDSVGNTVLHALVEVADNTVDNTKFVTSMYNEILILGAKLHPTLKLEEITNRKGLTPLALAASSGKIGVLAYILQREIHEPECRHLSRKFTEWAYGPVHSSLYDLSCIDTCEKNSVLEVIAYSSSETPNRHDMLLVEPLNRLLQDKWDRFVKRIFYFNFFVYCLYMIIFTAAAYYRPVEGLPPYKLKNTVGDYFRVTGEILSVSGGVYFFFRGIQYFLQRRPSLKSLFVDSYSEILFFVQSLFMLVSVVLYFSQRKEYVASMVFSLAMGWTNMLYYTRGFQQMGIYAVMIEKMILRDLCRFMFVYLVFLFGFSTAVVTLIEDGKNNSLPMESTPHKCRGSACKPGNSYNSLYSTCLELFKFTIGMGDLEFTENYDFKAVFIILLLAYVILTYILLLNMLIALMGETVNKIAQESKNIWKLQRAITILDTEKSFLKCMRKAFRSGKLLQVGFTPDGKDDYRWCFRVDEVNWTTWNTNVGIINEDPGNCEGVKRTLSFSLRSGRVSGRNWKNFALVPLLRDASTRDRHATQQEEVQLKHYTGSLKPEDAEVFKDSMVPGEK

SMILES | inhibition of calcium ion influx induced by capsaicin stimulation
COc1ccc(NC(=O)c2ccc(/C=C/C(F)(F)F)cc2)cc1Cl [Compound 391] | + (compound exhibited 0-25% inhibition of calcium ion influx induced by capsaicin stimulation)
CC(C)(C)C#Cc1ccc(C(=O)Nc2ccc(C(F)(F)F)cn2)cn1 [Compound 433] | ++ (compound exhibited 25-50% inhibition of calcium ion influx induced by capsaicin stimulation)
CC(C)(C)C#Cc1ccc(C(=O)Nc2ccc3c(c2)OCO3)cc1 [Compound 361] | ++++ (compound exhibited 75% or greater inhibition of calcium ion influx induced by capsaicin stimulation)
C/C(=C\C(C)(C)C)c1ccc(C(=O)NC2CCC(C(C)(C)C)CC2)cc1 (stereo not drawn) [Compound 287] | + (compound exhibited 0-25% inhibition of calcium ion influx induced by capsaicin stimulation)
CC(C)(C)C#Cc1ccc(C(=O)Nc2ccc(Cl)cc2)cc1 [Compound 365] | + (compound exhibited 0-25% inhibition of calcium ion influx induced by capsaicin stimulation)
CC(C)(C)C#Cc1ccc(C(=O)Nc2ccc(Cl)nc2)cc1 [Compound 384] | ++++ (compound exhibited 75% or greater inhibition of calcium ion influx induced by capsaicin stimulation)
CC(C)(C)C#Cc1ccc(C(=O)Nc2ccc(C(F)(F)F)cc2)cc1 [Compound 367] | ++ (compound exhibited 25-50% inhibition of calcium ion influx induced by capsaicin stimulation)
COc1cc(NC(=O)c2ccc(/C(C)=C/C(C)(C)C)cc2)cc(C(F)(F)F)c1 [Compound 337] | + (compound exhibited 0-25% inhibition of calcium ion influx induced by capsaicin stimulation)
CC(C)(C)C#Cc1ccc(C(=O)Nc2ccc(S(C)(=O)=O)cc2)cc1 [Compound 377] | ++++ (compound exhibited 75% or greater inhibition of calcium ion influx induced by capsaicin stimulation)
C/C(=C\C(C)(C)C)c1ccc(C(=O)NCc2ccccn2)cc1 [Compound 308] | + (compound exhibited 0-25% inhibition of calcium ion influx induced by capsaicin stimulation)
C/C(=C\C(C)(C)C)c1ccc(C(=O)Nc2ccc(C(C)(C)C)cc2)cc1 [Compound 334] | +++ (compound exhibited 50-75% inhibition of calcium ion influx induced by capsaicin stimulation)
CC(C)(C)C#Cc1ccc(C(=O)Nc2cnc3ccccc3c2)cn1 [Compound 429] | ++++ (compound exhibited 75% or greater inhibition of calcium ion influx induced by capsaicin stimulation)
CCCCc1ccc(NC(=O)c2ccc(/C=C/C(F)(F)F)cc2)cc1 [Compound 395] | + (compound exhibited 0-25% inhibition of calcium ion influx induced by capsaicin stimulation)
C/C(=C\C(C)(C)C)c1ccc(C(=O)NCCc2ccc(S(N)(=O)=O)cc2)cc1 [Compound 304] | + (compound exhibited 0-25% inhibition of calcium ion influx induced by capsaicin stimulation)
CC(C)(C)C#Cc1ccc(C(=O)Nc2ccc(Br)cn2)cc1 [Compound 382] | ++ (compound exhibited 25-50% inhibition of calcium ion influx induced by capsaicin stimulation)
CCC/C=C/c1ccc(C(=O)Nc2ccccc2Cl)cc1 [Compound 233] | + (compound exhibited 0-25% inhibition of calcium ion influx induced by capsaicin stimulation)
C/C(=C\C(C)(C)C)c1ccc(C(=O)NCc2cccnc2)cc1 [Compound 357] | + (compound exhibited 0-25% inhibition of calcium ion influx induced by capsaicin stimulation)
CCN(CC)CCOC(=O)c1ccc(NC(=O)c2ccc(C#CC(C)(C)C)nc2)cc1 [Compound 413] | + (compound exhibited 0-25% inhibition of calcium ion influx induced by capsaicin stimulation)
CCNC(=O)c1ccc(/C(C)=C/C(C)(C)C)cc1 [Compound 315] | + (compound exhibited 0-25% inhibition of calcium ion influx induced by capsaicin stimulation)
C/C(=C\C(C)(C)C)c1ccc(C(=O)Nc2cc(C)ccn2)cc1 [Compound 324] | + (compound exhibited 0-25% inhibition of calcium ion influx induced by capsaicin stimulation)
CC(C)(C)C#Cc1ccc(C(=O)Nc2cnc3ccccc3c2)cc1 [Compound 379] | ++++ (compound exhibited 75% or greater inhibition of calcium ion influx induced by capsaicin stimulation)

SMILES | inhibition of calcium ion influx induced by capsaicin stimulation
CC(C)(C)C#Cc1ccc(C(=O)Nc2ccc(Cl)c(C(F)(F)F)c2)cn1 [Compound 418] | ++++ (compound exhibited 75% or greater inhibition of calcium ion influx induced by capsaicin stimulation)
CCC/C=C/c1ccc(C(=O)Nc2cccc(C#N)c2)cc1 [Compound 244] | ++ (compound exhibited 25-50% inhibition of calcium ion influx induced by capsaicin stimulation)
COc1cc(NC(=O)c2ccc(C#CC(C)(C)C)nc2)cc(C(F)(F)F)c1 [Compound 422] | ++++ (compound exhibited 75% or greater inhibition of calcium ion influx induced by capsaicin stimulation)
CCC/C=C/c1ccc(C(=O)NCc2cccnc2)cc1 [Compound 267] | + (compound exhibited 0-25% inhibition of calcium ion influx induced by capsaicin stimulation)
CCC/C=C/c1ccc(C(=O)NCc2cccc(F)c2)cc1 [Compound 239] | ++ (compound exhibited 25-50% inhibition of calcium ion influx induced by capsaicin stimulation)
CCCCc1ccc(NC(=O)c2ccc(C#CC(C)(C)C)nc2)cc1 [Compound 421] | ++ (compound exhibited 25-50% inhibition of calcium ion influx induced by capsaicin stimulation)
O=C(Nc1ccc(C(F)(F)F)cc1)c1ccc(/C=C/C(F)(F)F)cc1 [Compound 392] | + (compound exhibited 0-25% inhibition of calcium ion influx induced by capsaicin stimulation)
CCN(CC)CCOC(=O)c1ccc(NC(=O)c2ccc(C#CC(C)(C)C)cc2)cc1 [Compound 363] | +++ (compound exhibited 50-75% inhibition of calcium ion influx induced by capsaicin stimulation)
C/C(=C/C(C)(C)C)c1ccc(C(=O)Nc2ccc3ccccc3c2)cc1 [Compound 358] | ++++ (compound exhibited 75% or greater inhibition of calcium ion influx induced by capsaicin stimulation)
CC(C)(C)C#Cc1ccc(C(=O)Nc2ccc3c(c2)OCCO3)cn1 [Compound 423] | ++++ (compound exhibited 75% or greater inhibition of calcium ion influx induced by capsaicin stimulation)
C/C(=C\C(C)(C)C)c1ccc(C(=O)NCc2ccncc2)cc1 [Compound 281] | + (compound exhibited 0-25% inhibition of calcium ion influx induced by capsaicin stimulation)
CCC/C=C/c1ccc(C(=O)Nc2cc(C)ccn2)cc1 [Compound 234] | + (compound exhibited 0-25% inhibition of calcium ion influx induced by capsaicin stimulation)
CCC/C=C/c1ccc(C(=O)NCC(C)C)cc1 [Compound 236] | + (compound exhibited 0-25% inhibition of calcium ion influx induced by capsaicin stimulation)
CCC/C=C/c1ccc(C(=O)Nc2ccc(OC)nc2)cc1 [Compound 260] | + (compound exhibited 0-25% inhibition of calcium ion influx induced by capsaicin stimulation)
CC(C)(C)C#Cc1ccc(C(=O)Nc2ccc(C(F)(F)F)cn2)cc1 [Compound 383] | +++ (compound exhibited 50-75% inhibition of calcium ion influx induced by capsaicin stimulation)
C/C(=C\C(C)(C)C)c1ccc(C(=O)Nc2ccncn2)cc1 [Compound 341] | + (compound exhibited 0-25% inhibition of calcium ion influx induced by capsaicin stimulation)
CCC/C=C/c1ccc(C(=O)Nc2ccc3[nH]ccc3c2)cc1 [Compound 252] | + (compound exhibited 0-25% inhibition of calcium ion influx induced by capsaicin stimulation)
CC(C)(C)C#Cc1ccc(C(=O)Nc2cccc(S(C)(=O)=O)c2)cc1 [Compound 412] | ++++ (compound exhibited 75% or greater inhibition of calcium ion influx induced by capsaicin stimulation)
CCC/C=C/c1ccc(C(=O)Nc2ccc(C(C)C)cc2)cc1 [Compound 247] | + (compound exhibited 0-25% inhibition of calcium ion influx induced by capsaicin stimulation)
CC(C)(C)C#Cc1ccc(C(=O)Nc2ccc(Cl)nc2)cn1 [Compound 434] | + (compound exhibited 0-25% inhibition of calcium ion influx induced by capsaicin stimulation)
O=C(Nc1ccc(Cl)cc1)c1ccc(/C=C/C(F)(F)F)cc1 [Compound 390] | ++ (compound exhibited 25-50% inhibition of calcium ion influx induced by capsaicin stimulation)
